Reference: patent US7858653B2, “2-imidazoles” (Hoffman-La Roche Inc., priority 2006, dated 2010)

The compounds below were run against T1, mouse TAAR1 (Mus musculus, UniProt Q923Y8) (assay: Radioligand binding assay on membranes of HEK293 cells stably expressing TAAR1). Conditions: TAAR1 membrane binding; species not given; read-out: calculated Kd value of the radioligand.
T1 construct: expressed in transfected cells; host or cells: HEK293 cells (ATCC # CRL-1573), stably transfected with pIRESneo2 expression plasmid; membranes prepared
Experimental: Construction of TAAR Expression Plasmids and Stably Transfected Cell Lines
For the construction of expression plasmids the coding sequences of human, rat and mouse TAAR1 were amplified from genomic DNA essentially as described by Lindemann et al. (2005) genomics 85, 372-385. The Expand High Fidelity PCR System (Roche Diagnostics) was used with 1.5 mM Mg^2+ and purified PCR products were cloned into pCR2.1-TOPO cloning vector (Invitrogen) following the instructions of the manufacturer. PCR products were subcloned into the pIRESneo2 vector (BD Clontech, Palo Alto, Calif.), and expression vectors were sequence verified before introduction in cell lines.
HEK293 cells (ATCC # CRL-1573) were cultured essentially as described Lindemann et al. (2005) genomics 85, 372-385. For the generation of stably transfected cell lines HEK293 cells were transfected with the pIRESneo2 expression plasmids containing the TAAR coding sequences (described above) with Lipofectamine 2000 (Invitrogen) according to the instructions of the manufacturer, and 24 hours post transfection the culture medium was supplemented with 1 mg/ml G418 (Sigma, Buchs, Switzerland). After a culture period of about 10 d clones were isolated, expanded and tested for responsiveness to trace amines (all compounds purchased from Sigma) with the cAMP Biotrak Enzyme immunoassay (EIA) System (Amersham) following the non-acetylation EIA procedure provided by the manufacturer.
Membrane Preparation and Radioligand Binding
Cells at confluence were rinsed with ice-cold phosphate buffered saline without Ca^2+ and Mg^2+ containing 10 mM EDTA and pelleted by centrifugation at 1000 rpm for 5 minutes at 4° C. The pellet was then washed twice with ice-cold phosphate buffered saline and the cell pellet was frozen immediately by immersion in liquid nitrogen and stored until use at −80° C. The cell pellet was then suspended in 20 ml HEPES-NaOH (20 mM), pH 7.4 containing 10 mM EDTA, and homogenized with a Polytron (PT 3000, Kinematica) at 10,000 rpm for 10 seconds. The homogenate was centrifuged at 48,000×g for 30 minutes at 4° C. and the pellet resuspended in 20 ml HEPES-NaOH (20 mM), pH 7.4 containing 0.1 mM EDTA (buffer A), and homogenized with a Polytron at 10,000 rpm for 10 seconds. The homogenate was then centrifuged at 48,000×g for 30 minutes at 4° C. and the pellet resuspended in 20 ml buffer A, and homogenized with a Polytron at 10,000 rpm for 10 seconds. Protein concentration was determined by the method of Pierce (Rockford, Ill.). The homogenate was then centrifuged at 48,000×g for 10 minutes at 4° C., resuspended in HEPES-NaOH (20 mM), pH 7.0 including MgCl2 (10 mM) and CaCl2 ([…]) (buffer B) at 200 μg protein per ml and homogenized with a Polytron at 10,000 rpm for 10 seconds.
Binding assay was performed at 4° C. in a final volume of 1 ml, and with an incubation time of 30 minutes. The radioligand [^3H]-rac-2-(1,2,3,4-tetrahydro-1-naphthyl)-2-imidazoline was used at a concentration equal to the calculated Kd value of 60 nM to give a total binding at around 0.1% of the total added radioligand concentration, and a specific binding which represented approximately 70-80% of the total binding. Non-specific binding was defined as the amount of [^3H]-rac-2-(1,2,3,4-tetrahydro-1-naphthyl)-2-imidazoline bound in the presence of the appropriate unlabelled ligand (10 μM). Competing ligands were tested in a wide range of concentrations (10 pM-30 μM). […] Each experiment was performed in duplicate. All incubations were terminated by rapid filtration through UniFilter-96 plates (Packard Instrument Company) and glass filter GF/C, pre-soaked for at least 2 hours in polyethylenimine 0.3%, and using a Filtermate 96 Cell Harvester (Packard Instrument Company). […]

T1 sequence (Q923Y8 whole entry): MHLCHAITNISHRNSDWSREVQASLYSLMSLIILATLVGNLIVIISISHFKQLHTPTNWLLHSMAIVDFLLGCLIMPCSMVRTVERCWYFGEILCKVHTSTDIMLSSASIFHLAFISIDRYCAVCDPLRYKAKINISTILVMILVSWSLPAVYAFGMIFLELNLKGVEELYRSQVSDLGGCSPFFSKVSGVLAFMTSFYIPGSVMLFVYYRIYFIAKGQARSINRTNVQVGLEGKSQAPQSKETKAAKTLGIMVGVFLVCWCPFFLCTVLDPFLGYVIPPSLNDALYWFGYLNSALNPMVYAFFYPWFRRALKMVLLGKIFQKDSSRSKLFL

| Structure (SMILES) | Kd |
| --- | --- |
| c1ccc2c(c1)CCCC2C1=NCCN1 (racemic) [[^3H]-rac-2-(1,2,3,4-tetrahydro-1-naphthyl)-2-imidazoline, reference compound] | 60 nM |

Same assay, conditions: mouse TAAR1; radioligand [3H]-rac-2-(1,2,3,4-tetrahydro-1-naphthyl)-2-imidazoline at 60 nM; 4° C., 30 minutes

| Ki | Structure (SMILES) |
| --- | --- |
| 0.46 µM | CC(Nc1ncc[nH]1)c1ccccc1 (racemic) [Example 9, (R,S)-(1H-Imidazol-2-yl)-(1-phenyl-ethyl)-amine] |
| 0.81 µM | Cc1ccccc1C(C)Nc1ncc[nH]1 (racemic) [Example 21, (R,S)-(1H-Imidazol-2-yl)-(1-o-tolyl-ethyl)-amine] |
| 0.076 µM | CC(Nc1ncc[nH]1)c1cccc(Cl)c1Cl (racemic) [Example 22, (R,S)-[1-(2,3-Dichloro-phenyl)-ethyl]-(1H-imidazol-2-yl)-amine] |
| 0.24 µM | CC(Nc1ncc[nH]1)c1ccccc1Cl (racemic) [Example 29, (RS)-[1-(2-Chloro-phenyl)-ethyl]-(1H-imidazol-2-yl)-amine] |
| 0.78 µM | COC(Cc1ncc[nH]1)c1cccc(Cl)c1 (stereo not shown) [Example 1, 2-[2-(3-Chloro-phenyl)-2-methoxy-ethyl]-1H-imidazole] |
| 0.14 µM | Clc1cccc(SCc2ncc[nH]2)c1Cl [Example 3, 2-(2,3-Dichloro-phenylsulfanylmethyl)-1H-imidazole] |
| 0.86 µM | Clc1cccc(CNc2ncc[nH]2)c1 [Example 6, (3-Chloro-benzyl)-(1H-imidazol-2-yl)-amine] |
| 0.47 µM | Clc1ccc(CNc2ncc[nH]2)cc1Cl [Example 7, (3,4-Dichloro-benzyl)-(1H-imidazol-2-yl)-amine] |
| 0.18 µM | Clc1cccc(CNc2ncc[nH]2)c1Cl [Example 8, (2,3-Dichloro-benzyl)-(1H-imidazol-2-yl)-amine] |
| 0.94 µM | Cc1cccc(CNc2ncc[nH]2)c1 [Example 11, (1H-Imidazol-2-yl)-(3-methyl-benzyl)-amine] |
| 0.98 µM | Fc1cccc(CNc2ncc[nH]2)c1 [Example 16, (3-Fluoro-benzyl)-(1H-imidazol-2-yl)-amine] |
| 0.67 µM | c1ccc2cc(CNc3ncc[nH]3)ccc2c1 [Example 24, (1H-Imidazol-2-yl)-naphthalen-2-ylmethyl-amine] |
